Changes are numbered by the printed parent chain.

Here are results for one compound from PMC10279920, “Single-molecule visualization of Pif1 helicase translocation on single-stranded DNA” (The Journal of Biological Chemistry, 2023).

Holding throughout (experiment): ATP hydrolysis, [γ-32P]-ATP TLC, Michaelis-Menten fit
Common to all, as to format: biochemical
Details in all cases: M13 ssDNA 1.5 μM nt, 10 nM Pif1, 5 mM MgCl2, 60 mM KCl, pH 7.5, 30 °C, no RPA; labelled compound as tracer

The target in experiment [1] is T1, GFP-Pif1 (Saccharomyces cerevisiae, UniProt P07271, K312A).
T1 construct: N-terminal superfolder GFP fusion of nuclear isoform residues 40-859, pRSF-Duet-1, E. coli Rosetta2(DE3), Ni-NTA purified
T1 sequence (P07271 40-859 K312A): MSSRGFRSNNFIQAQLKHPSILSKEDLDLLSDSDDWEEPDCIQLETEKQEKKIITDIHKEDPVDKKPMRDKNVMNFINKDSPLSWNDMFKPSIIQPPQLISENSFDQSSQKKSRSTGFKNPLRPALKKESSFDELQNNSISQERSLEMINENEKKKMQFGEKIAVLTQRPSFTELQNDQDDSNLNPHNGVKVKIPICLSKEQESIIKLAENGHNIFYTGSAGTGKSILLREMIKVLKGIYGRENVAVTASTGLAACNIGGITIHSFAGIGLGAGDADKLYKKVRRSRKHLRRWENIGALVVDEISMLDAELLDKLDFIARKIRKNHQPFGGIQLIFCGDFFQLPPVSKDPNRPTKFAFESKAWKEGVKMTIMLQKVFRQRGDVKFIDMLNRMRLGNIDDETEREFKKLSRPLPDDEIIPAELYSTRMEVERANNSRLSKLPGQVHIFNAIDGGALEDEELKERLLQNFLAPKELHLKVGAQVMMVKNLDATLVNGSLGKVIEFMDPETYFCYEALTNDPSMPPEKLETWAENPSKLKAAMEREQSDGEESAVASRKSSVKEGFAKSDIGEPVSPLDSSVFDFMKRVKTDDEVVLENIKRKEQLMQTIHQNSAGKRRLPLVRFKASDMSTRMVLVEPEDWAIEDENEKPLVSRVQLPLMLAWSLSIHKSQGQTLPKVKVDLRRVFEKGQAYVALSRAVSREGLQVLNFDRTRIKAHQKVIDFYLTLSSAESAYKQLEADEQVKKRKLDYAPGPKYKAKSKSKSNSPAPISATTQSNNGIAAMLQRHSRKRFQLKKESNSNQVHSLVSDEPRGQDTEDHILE
As to the method:
(§1) ATP hydrolysis, [γ-32P]-ATP TLC, Michaelis-Menten fit on GFP-Pif1 | each of the mutant proteins was tested for ATPase activity

In experiment [2] the target is T2, GFP-Pif1 (Saccharomyces cerevisiae, UniProt P07271, L310A).
T2 construct: N-terminal superfolder GFP fusion of nuclear isoform residues 40-859, pRSF-Duet-1, E. coli Rosetta2(DE3), Ni-NTA purified
T2 sequence (P07271 40-859 L310A): T1 sequence (P07271 40-859 K312A) with L271A, A273K
As to the method:
as §1

The target in experiment [3] is T3, GFP-Pif1 (Saccharomyces cerevisiae, UniProt P07271, E724A).
T3 construct: N-terminal superfolder GFP fusion of nuclear isoform residues 40-859, pRSF-Duet-1, E. coli Rosetta2(DE3), Ni-NTA purified
T3 sequence (P07271 40-859 E724A): T1 sequence (P07271 40-859 K312A) with A273K, E685A
As to the method:
as §1

Take `Nc1ncnc2c1ncn2[C@@H]1O[C@H](COP(=O)(O)OP(=O)(O)OP(=O)(O)O)[C@@H](O)[C@H]1O` [ATP]: the Km is 380 ± 310 µM in experiment [1], 650 ± 630 µM in experiment [2] and 1470 ± 1370 µM in experiment [3].
